Results as given in patent US20080312255A1 (ASTRAZENECA AB, priority 2007, published 2008).
Structures can show the parent of a compound that is named as a salt.

molecular target: S. aureus GyrB ATPase (Staphylococcus aureus, UniProt P0A0K8); test: S. aureus GyrB ATPase inhibition (ammonium molybdate/malachite green phosphate detection); type: biochemical; conditions: compound concentration of 1 μM
Experimental: S. aureus GyrB ATPase Inhibition Activity: Compounds may be tested for inhibition of S. aureus GyrB ATPase activity using an ammonium molybdate/malachite green-based phosphate detection assay (Lanzetta, P. A., L. J. Alvarez, P. S. Reinach, and O. A. Candia, 1979, 100: 95-97). Assays can be performed in multiwell plates in 30 μl reactions containing: 50 mM Hepes buffer pH 7.5, 75 mM ammonium acetate, 8.0 mM magnesium chloride, 0.5 mM ethylenediaminetetraacetic acid, 5% glycerol, 1.0 mM 1,4-Dithio-DL-threitol, 200 nM bovine serum albumin, 1.0 μg/ml sheared salmon sperm DNA, 250 pM E. coli GyrA, 250 pM S. aureus GyrB, 250 μM ATP, and compound in dimethylsulfoxide. Reactions can be quenched with […] of ammonium molybdate/malachite green detection reagent containing 1.2 mM malachite green hydrochloride, 8.5 mM ammonium molybdate tetrahydrate, and 1 M hydrochloric acid. Plates can be read in an absorbance plate reader at 650 nm and percent inhibition values can be calculated using dimethylsulfoxide (2%)-containing reactions as 0% inhibition and EDTA-containing ([…]) reactions as 100% inhibition controls. An IC50 measurement of compound potency for each compound can be determined from reactions performed in the presence of 10 different compound concentrations.
Compounds of the invention were tested in an assay substantially similar to the assay described above for measuring the inhibition of S. aureus GyrB ATPase. Percent inhibition of S. aureus GyrB ATPase at a compound concentration of 1 μM (unless otherwise noted) is disclosed in the following table: […]

Sequence of S. aureus GyrB ATPase (P0AES4 whole entry): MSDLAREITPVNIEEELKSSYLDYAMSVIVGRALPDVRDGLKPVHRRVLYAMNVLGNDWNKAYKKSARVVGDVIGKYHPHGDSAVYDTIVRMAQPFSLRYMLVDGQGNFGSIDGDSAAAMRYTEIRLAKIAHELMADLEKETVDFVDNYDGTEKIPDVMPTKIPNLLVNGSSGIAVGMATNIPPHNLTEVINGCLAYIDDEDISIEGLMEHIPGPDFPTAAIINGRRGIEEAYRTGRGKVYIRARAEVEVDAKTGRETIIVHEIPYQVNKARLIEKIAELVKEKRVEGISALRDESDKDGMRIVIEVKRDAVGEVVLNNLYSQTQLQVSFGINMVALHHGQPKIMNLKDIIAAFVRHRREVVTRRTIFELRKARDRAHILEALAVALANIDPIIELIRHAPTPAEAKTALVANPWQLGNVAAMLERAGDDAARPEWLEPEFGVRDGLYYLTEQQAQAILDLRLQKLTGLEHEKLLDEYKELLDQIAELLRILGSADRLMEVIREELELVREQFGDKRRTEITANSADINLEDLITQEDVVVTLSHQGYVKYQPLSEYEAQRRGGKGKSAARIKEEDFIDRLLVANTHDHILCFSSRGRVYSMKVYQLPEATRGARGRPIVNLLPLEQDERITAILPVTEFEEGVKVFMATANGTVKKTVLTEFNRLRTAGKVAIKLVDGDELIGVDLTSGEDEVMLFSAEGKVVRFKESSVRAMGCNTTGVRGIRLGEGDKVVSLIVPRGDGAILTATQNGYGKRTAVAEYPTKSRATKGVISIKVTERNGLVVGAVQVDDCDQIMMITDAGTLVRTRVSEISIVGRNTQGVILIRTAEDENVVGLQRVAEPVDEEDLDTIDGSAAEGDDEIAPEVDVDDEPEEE
Sequence of S. aureus GyrB ATPase (P0A0K8 whole entry): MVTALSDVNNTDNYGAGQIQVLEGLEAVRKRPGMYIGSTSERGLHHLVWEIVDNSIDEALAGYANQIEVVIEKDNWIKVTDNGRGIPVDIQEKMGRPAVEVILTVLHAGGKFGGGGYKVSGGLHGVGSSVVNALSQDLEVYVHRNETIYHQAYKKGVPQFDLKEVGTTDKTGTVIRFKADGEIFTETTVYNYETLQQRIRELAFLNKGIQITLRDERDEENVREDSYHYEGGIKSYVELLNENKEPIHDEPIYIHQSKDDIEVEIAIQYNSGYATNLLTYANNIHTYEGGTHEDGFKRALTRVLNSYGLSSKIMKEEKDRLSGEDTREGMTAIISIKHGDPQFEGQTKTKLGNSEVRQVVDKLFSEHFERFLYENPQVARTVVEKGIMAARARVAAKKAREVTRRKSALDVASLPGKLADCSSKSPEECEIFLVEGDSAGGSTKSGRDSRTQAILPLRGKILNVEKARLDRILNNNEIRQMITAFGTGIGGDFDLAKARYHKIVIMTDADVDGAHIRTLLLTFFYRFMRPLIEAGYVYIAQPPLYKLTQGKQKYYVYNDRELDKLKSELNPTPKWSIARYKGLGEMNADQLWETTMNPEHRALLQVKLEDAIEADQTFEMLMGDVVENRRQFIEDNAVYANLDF

Question: Which inhibition at 1 µM does the source give for `CO[C@H]1CN(c2nc(-c3ncccn3)c(C(=O)O)s2)CC[C@H]1NC(=O)c1[nH]c(C)c(Cl)c1Cl` [Example 1, 2-((3S,4R)-4-{[(3,4-Dichloro-5-methyl-1H-pyrrol-2-yl)carbonyl]amino}-3-methoxypiperidin-1-yl)-4-pyrimidin-2-yl-1,3-thiazole-5-carboxylic acid] here?
Answer: The inhibition at 1 µM was 99.2%.

Question: With `CO[C@H]1CN(c2nc(-c3ccncn3)c(C(=O)O)s2)CC[C@H]1NC(=O)c1[nH]c(C)c(Cl)c1Cl` [Example 2, 2-((3S,4R)-4-{[(3,4-Dichloro-5-methyl-1H-pyrrol-2-yl)carbonyl]amino}-3-methoxypiperidin-1-yl)-4-pyrimidin-4-yl-1,3-thiazole-5-carboxylic acid] as the compound, how does the inhibition at 1 µM read?
Answer: Its inhibition at 1 µM is 101%.

Question: Which inhibition at 1 µM does the source give for `CO[C@H]1CN(c2nc(-c3nccs3)c(C(=O)O)s2)CC[C@H]1NC(=O)c1[nH]c(C)c(Cl)c1Cl` [Example 3, 2′-((3S,4R)-4-{[(3,4-Dichloro-5-methyl-1H-pyrrol-2-yl)carbonyl]amino}-3-methoxypiperidin-1-yl)-2,4′-bi-1,3-thiazole-5′-carboxylic acid] here?
Answer: Its inhibition at 1 µM is 98.6%.

Question: For `Cc1[nH]c(C(=O)N[C@@H]2CCN(c3nc(-c4ncccn4)c(C(=O)O)s3)C[C@@H]2F)c(Cl)c1Cl` [Example 4, 2-((3S,4R)-4-{[(3,4-Dichloro-5-methyl-1H-pyrrol-2-yl)carbonyl]amino}-3-fluoropiperidin-1-yl)-4-pyrimidin-2-yl-1,3-thiazole-5-carboxylic acid], which inhibition at 1 µM is on record?
Answer: The inhibition at 1 µM was 97.7%.

Question: How did the inhibition at 1 µM turn out when `Cc1[nH]c(C(=O)N[C@@H]2CCN(c3nc(-c4ccncn4)c(C(=O)O)s3)C[C@@H]2F)c(Cl)c1Cl` [Example 5, 2-((3S,4R)-4-{[(3,4-Dichloro-5-methyl-1H-pyrrol-2-yl)carbonyl]amino}-3-fluoropiperidin-1-yl)-4-pyrimidin-4-yl-1,3-thiazole-5-carboxylic acid] was run?
Answer: The inhibition at 1 µM was 99.4%.

Question: Which inhibition at 1 µM does the source give for `Cc1[nH]c(C(=O)N[C@@H]2CCN(c3nc(-c4nccs4)c(C(=O)O)s3)C[C@@H]2F)c(Cl)c1Cl` [Example 6, 2′-((3S,4R)-4-{[(3,4-Dichloro-5-methyl-1H-pyrrol-2-yl)carbonyl]amino}-3-fluoropiperidin-1-yl)-2,4′-bi-1,3-thiazole-5′-carboxylic acid] here?
Answer: The inhibition at 1 µM was 99.9%.

Question: How did the inhibition at 1 µM turn out when `CO[C@H]1CN(c2nc(-c3ccccn3)c(C(=O)O)s2)CC[C@H]1NC(=O)c1[nH]c(C)c(Cl)c1Cl` [Example 7, 2-((3S,4R)-4-{[(3,4-Dichloro-5-methyl-1H-pyrrol-2-yl)carbonyl]amino}-3-methoxypiperidin-1-yl)-4-pyridin-2-yl-1,3-thiazole-5-carboxylic acid] was run?
Answer: Its inhibition at 1 µM is 97.1%.

Question: For `Cc1[nH]c(C(=O)N[C@@H]2CCN(c3nc(-c4ccccn4)c(C(=O)O)s3)C[C@@H]2F)c(Cl)c1Cl` [Example 8, 2-((3S,4R)-4-{[(3,4-Dichloro-5-methyl-1H-pyrrol-2-yl)carbonyl]amino}-3-fluoropiperidin-1-yl)-4-pyridin-2-yl-1,3-thiazole-5-carboxylic acid], which inhibition at 1 µM is on record?
Answer: The inhibition at 1 µM was 106%.

Question: `CO[C@H]1CN(c2nc(-c3cc(N(C)C)nc(N(C)C)n3)c(C(=O)O)s2)CC[C@H]1NC(=O)c1[nH]c(C)c(Cl)c1Cl` [Example 9, 4-[2,6-Bis(dimethylamino)pyrimidin-4-yl]-2-((3S,4R)-4-{[(3,4-dichloro-5-methyl-1H-pyrrol-2-yl)carbonyl]amino}-3-methoxypiperidin-1-yl)-1,3-thiazole-5-carboxylic acid] was tested. Which inhibition at 1 µM did it give?
Answer: The inhibition at 1 µM was 102%.

Question: For `Cc1[nH]c(C(=O)N[C@@H]2CCN(c3nc(-c4cc(N(C)C)nc(N(C)C)n4)c(C(=O)O)s3)C[C@@H]2F)c(Cl)c1Cl` [Example 10, 4-[2,6-Bis(dimethylamino)pyrimidin-4-yl]-2-((3S,4R)-4-{[(3,4-dichloro-5-methyl-1H-pyrrol-2-yl)carbonyl]amino}-3-fluoropiperidin-1-yl)-1,3-thiazole-5-carboxylic acid], which inhibition at 1 µM is on record?
Answer: Its inhibition at 1 µM is 101%.

Question: With `CO[C@H]1CN(c2nc(-c3cnccn3)c(C(=O)O)s2)CC[C@H]1NC(=O)c1[nH]c(C)c(Cl)c1Cl` [Example 12, 2-((3S,4R)-4-{[(3,4-Dichloro-5-methyl-1H-pyrrol-2-yl)carbonyl]amino}-3-methoxypiperidin-1-yl)-4-pyrazin-2-yl-1,3-thiazole-5-carboxylic acid] as the compound, how does the inhibition at 1 µM read?
Answer: The inhibition at 1 µM was 105%.

Question: For `CO[C@H]1CN(c2nc(-c3nc4ccccc4s3)c(C(=O)O)s2)CC[C@H]1NC(=O)c1[nH]c(C)c(Cl)c1Cl` [Example 13, 4-(1,3-Benzothiazol-2-yl)-2-((3S,4R)-4-{[(3,4-dichloro-5-methyl-1H-pyrrol-2-yl)carbonyl]amino}-3-methoxypiperidin-1-yl)-1,3-thiazole-5-carboxylic acid], which inhibition at 1 µM is on record?
Answer: Its inhibition at 1 µM is 101%.

Question: `Cc1[nH]c(C(=O)N[C@@H]2CCN(c3nc(-c4cnccn4)c(C(=O)O)s3)C[C@@H]2F)c(Cl)c1Cl` [Example 14] was tested. Which inhibition at 1 µM did it give?
Answer: The inhibition at 1 µM was 98.3%.

Question: How did the inhibition at 1 µM turn out when `Cc1[nH]c(C(=O)N[C@@H]2CCN(c3nc(-c4nc5ccccc5s4)c(C(=O)O)s3)C[C@@H]2F)c(Cl)c1Cl` [Example 15, 4-(1,3-Benzothiazol-2-yl)-2-((3S,4R)-4-{[(3,4-dichloro-5-methyl-1H-pyrrol-2-yl)carbonyl]amino}-3-fluoropiperidin-1-yl)-1,3-thiazole-5-carboxylic acid] was run?
Answer: The inhibition at 1 µM was 101%.

Question: Which inhibition at 1 µM does the source give for `CO[C@H]1CN(c2nc(-c3nccn3COCC[Si](C)(C)C)c(C(=O)O)s2)CC[C@H]1NC(=O)c1[nH]c(C)c(Cl)c1Cl` [Example 16, 2-((3S,4R)-4-{[(3,4-Dichloro-5-methyl-1H-pyrrol-2-yl)carbonyl]amino}-3-methoxypiperidin-1-yl)-4-(1-{[2-(trimethylsilyl)ethoxy]methyl}-1H-imidazol-2-yl)-1,3-thiazole-5-carboxylic acid] here?
Answer: Its inhibition at 1 µM is 100%.

Question: `COCn1ccnc1-c1nc(N2CC[C@@H](NC(=O)c3[nH]c(C)c(Cl)c3Cl)[C@@H](OC)C2)sc1C(=O)O` [Example 17, 2-((3S,4R)-4-{[(3,4-Dichloro-5-methyl-1H-pyrrol-2-yl)carbonyl]amino}-3-methoxypiperidin-1-yl)-4-[1-(methoxymethyl)-1H-imidazol-2-yl]-1,3-thiazole-5-carboxylic acid] was tested. Which inhibition at 1 µM did it give?
Answer: The inhibition at 1 µM was 97.7%.

Question: With `CO[C@H]1CN(c2nc(-c3ncc[nH]3)c(C(=O)O)s2)CC[C@H]1NC(=O)c1[nH]c(C)c(Cl)c1Cl` [Example 18, 2-((3S,4R)-4-{[(3,4-Dichloro-5-methyl-1H-pyrrol-2-yl)carbonyl]amino}-3-methoxypiperidin-1-yl)-4-(1H-imidazol-2-yl)-1,3-thiazole-5-carboxylic acid] as the compound, how does the inhibition at 1 µM read?
Answer: The inhibition at 1 µM was 101%.

Question: With `COCn1ccnc1-c1nc(N2CC[C@@H](NC(=O)c3[nH]c(C)c(Cl)c3Cl)[C@@H](F)C2)sc1C(=O)O` [Example 19, 2-((3S,4R)-4-{[(3,4-Dichloro-5-methyl-1H-pyrrol-2-yl)carbonyl]amino}-3-fluoropiperidin-1-yl)-4-[1-(methoxymethyl)-1H-imidazol-2-yl]-1,3-thiazole-5-carboxylic acid] as the compound, how does the inhibition at 1 µM read?
Answer: Its inhibition at 1 µM is 102%.

Question: How did the inhibition at 1 µM turn out when `Cc1[nH]c(C(=O)N[C@@H]2CCN(c3nc(-c4ncc[nH]4)c(C(=O)O)s3)C[C@@H]2F)c(Cl)c1Cl` [Example 20, 2-((3S,4R)-4-{[(3,4-Dichloro-5-methyl-1H-pyrrol-2-yl)carbonyl]amino}-3-fluoropiperidin-1-yl)-4-(1H-imidazol-2-yl)-1,3-thiazole-5-carboxylic acid] was run?
Answer: Its inhibition at 1 µM is 98.6%.

Question: Which inhibition at 1 µM does the source give for `CO[C@H]1CN(c2nc(-c3nccn3C)c(C(=O)O)s2)CC[C@H]1NC(=O)c1[nH]c(C)c(Cl)c1Cl` [Example 21, 2-((3S,4R)-4-{[(3,4-Dichloro-5-methyl-1H-pyrrol-2-yl)carbonyl]amino}-3-methoxypiperidin-1-yl)-4-(1-methyl-1H-imidazol-2-yl)-1,3-thiazole-5-carboxylic acid] here?
Answer: Its inhibition at 1 µM is 99.1%.

Question: For `CO[C@H]1CN(c2nc(-c3n(C)cc[n+]3C)c(C(=O)O)s2)CC[C@H]1NC(=O)c1[nH]c(C)c(Cl)c1Cl` [Example 22, 2-[5-Carboxy-2-((3S,4R)-4-{[(3,4-dichloro-5-methyl-1H-pyrrol-2-yl)carbonyl]amino}-3-methoxypiperidin-1-yl)-1,3-thiazol-4-yl]-1,3-dimethyl-1H-imidazol-3-ium trifluoroacetate], which inhibition at 1 µM is on record?
Answer: Its inhibition at 1 µM is 101%.

Question: `CO[C@H]1CN(c2nc(-c3ccn[nH]3)c(C(=O)O)s2)CC[C@H]1NC(=O)c1[nH]c(C)c(Cl)c1Cl` [Example 23, 2-((3S,4R)-4-{[(3,4-Dichloro-5-methyl-1H-pyrrol-2-yl)carbonyl]amino}-3-methoxypiperidin-1-yl)-4-(1H-pyrazol-5-yl)-1,3-thiazole-5-carboxylic acid] was tested. Which inhibition at 1 µM did it give?
Answer: Its inhibition at 1 µM is 100%.

Question: Which inhibition at 1 µM does the source give for `Cc1[nH]c(C(=O)N[C@@H]2CCN(c3nc(-c4ccn[nH]4)c(C(=O)O)s3)C[C@@H]2F)c(Cl)c1Cl` [Example 24, 2-((3S,4R)-4-{[(3,4-Dichloro-5-methyl-1H-pyrrol-2-yl)carbonyl]amino}-3-fluoropiperidin-1-yl)-4-(1H-pyrazol-5-yl)-1,3-thiazole-5-carboxylic acid] here?
Answer: The inhibition at 1 µM was 65.9%.

Question: With `COCCn1ccnc1-c1nc(N2CC[C@@H](NC(=O)c3[nH]c(C)c(Cl)c3Cl)[C@@H](OC)C2)sc1C(=O)O` [Example 25, 2-((3S,4R)-4-{[(3,4-Dichloro-5-methyl-1H-pyrrol-2-yl)carbonyl]amino}-3-methoxypiperidin-1-yl)-4-[1-(2-methoxyethyl)-1H-imidazol-2-yl]-1,3-thiazole-5-carboxylic acid] as the compound, how does the inhibition at 1 µM read?
Answer: The inhibition at 1 µM was 98.3%.
